Test results published in patent publication US20100129434A1, “COMPOSITIONS AND METHODS FOR THE TREATMENT OF MUCORMYCOSIS AND OTHER FUNGAL DISEASES” (priority 2006, published 2010).
Where two headings read alike, the source gives them in different places.

Tests used:
[1] = system: R. oryzae; experiment: Tissue fungal burden of DKA mice infected with R. oryzae; assay type: in vivo, BALB/c male mice
Description: Briefly, for in vivo infection, BALB/c male mice (>20 g) were rendered diabetic with a single i.p. injection of 210 mg/kg streptozotocin in 0.2 ml citrate buffer 10 days prior to fungal challenge. […] Mice were infected through the tail vein with the appropriate inocula of R. oryzae. To confirm the inocula, dilutions were streaked on PDA plates and colonies were counted following a 24 h incubation period at room temperature. The primary efficacy endpoint was time to death. As a secondary endpoint, brain fungal burden (the primary target organ) was determined by homogenization by rolling a pipette on organs placed in Whirl-Pak bags (Nasco, Fort Atkinson, Wis.) containing 2 ml saline. The homogenate was serially diluted in 0.85% saline and then quantitatively cultured on PDA. Values were expressed as log 10 cfu g^−1 tissue. All procedures involving mice were approved by the institutional animal use and care committee, following the National Institutes of Health guidelines for animal housing and care.
(§1) For in vivo infection, BALB/c male mice (>20 g) were rendered diabetic with a single i.p. injection of 210 mg/kg streptozotocin in 0.2 ml citrate buffer 10 days prior to fungal challenge. […] For neutropenic mouse model, mice were injected with a single i.p. dose of 200 mg/kg cyclolphosphamide (Bristol Myer Squibb) 2 days prior to infection with R. oryzae. […] Mice were infected through the tail vein with the appropriate inocula of R. oryzae. To confirm the inocula, dilutions were streaked on PDA plates containing 0.1% triton and colonies were counted following a 24 h incubation period at 37° C. The primary efficacy endpoint was time to death. As a secondary endpoint, brain fungal burden (the primary target organ) was determined by homogenization by rolling a pipette on organs placed in Whirl-Pak™ bags (Nasco®, Fort Atkinson, Wis.) containing 1 ml saline. The homogenate was serially diluted in 0.85% saline and then quantitatively cultured on PDA. Values were expressed as log10 cfu g−1 tissue. Finally, for histopathological analysis, infected organs were collected from mice and fixed in 10% zinc formalin. Fixed tissues were embedded in paraffin, and […] sections were stained with haematoxylin and eosin for light microscopy examination. All procedures involving mice were approved by the institutional animal use and care committee, following the National Institutes of Health guidelines for animal housing and care.

[2] = system: R. oryzae; experiment: Survival of neutropenic mice infected with R. oryzae; assay type: in vivo
Description: as §1
Two days later, mice were infected via the tail-vein with 2.7×10^3 spores of R. oryzae 99-892.

[3] = system: rFTR1 promoter; experiment: Green fluorescent protein (GFP) reporter assay, rFTR1 promoter; assay type: cell-based, Rhizopus oryzae; conditions: R. oryzae M16 transformed with rFTR1p::GFP
Description: A 1.5 kb fragment upstream of the rFTR10RF was PCR amplified using the following primer pair: sense primer 5′-[…]-3′; and anti-sense primer 5′-[…]-3′. A 2.1 kb fragment containing the constitutively expressed actin promoter was also PCR amplified to use as a control using the following primer pair: sense 5′[…]-3′; and anti-sense:5′ […]-3. Amplified fragments were ligated into the XbaI and EagI sites of plasmid pyr225b (35). GFP was amplified from pGFPB21-43.31 (36), and cloned downstream of either promoter into EagI-SacI sites of the plasmid downstream of either promoter. Finally, a 2.1 kb fragment representing the ORF of pyrF and its native promoter was cloned into SpeI-ClaI sites of the plasmid to serve as a selection marker. […] Purified transformants selected on uracil negative plates were analyzed by Southern blotting.
Expression of rFTR1p and ACT1p were studied in transformants grown in iron-replete medium (i.e. YNB+CSM-URA) or iron-depleted conditions (i.e. YNB+CSM-URA supplemented with 2 mM deferasirox). […] Additionally, a 1 ml sample from each culture was also used to quantify the fluorescence emission using a FACSCaliber™ (Becton Dickinson®) instrument equipped with an argon laser emitting at 488 nm. Spores were gated by forward and side scatter and fluorescence measured in FL1. […]

[4] = cited from earlier work
[5] = 4.2×10^4 spores R. oryzae 99-892, 10 mg/kg bid, 3 days, vs placebo or deferasirox plus saturating ferric chloride

O=C(O)c1ccc(-n2nc(-c3ccccc3O)nc2-c2ccccc2O)cc1 [Deferasirox, 4-[3,5-Bis(2-hydroxyphenyl)-1H-1,2,4-triazol-1-yl]-benzoic acid]
decrease in brain fungal burden [1, 5]: greater than 10 fold | decrease in kidney fungal burden [1, 5]: greater than 10 fold | brain CFUs compared to placebo ([1]; R. oryzae 99-880, monotherapy, organs harvested day 3): neither drug alone was able to reduce brain CFUs | time to death compared to placebo ([2]; 2.7×10^3 spores R. oryzae 99-892, 10 mg/kg twice qod, five doses from 24 h post infection): significantly improved time to death | time to death versus placebo ([2]; R. oryzae 99-892, dosed twice daily): did not significantly improve time to death | GFP fluorescence by confocal microscopy ([3]; 2 mM deferasirox): fluorescent | fluorescent spores by flow cytometry ([3]; 2 mM deferasirox overnight, iron-replete less than 1%): 43% | toxicity ([4]; iron-overloaded marmosets, doses up to 400 mg/kg/d): virtually no toxicity | toxicity ([4]; non-iron overloaded marmosets, 39 weeks, up to 40 mg/kg/d): no toxicities | tolerability ([4]; non-iron overloaded marmosets, subacute treatment (4 weeks), up to 65 mg/kg/d): well tolerated with no adverse effects | toxicity ([4]; non-iron-overloaded marmosets, chronic administration, 80 mg/kg): severe toxicity
